The target of this assay is Protease (Human immunodeficiency virus 1, UniProt Q9YQ12). Description: Inhibition of HIV1 protease.

For seven compounds, IC50 results are on record in ChEMBL document CHEMBL1147361, “Microbial transformation of L-696,474, a novel cytochalasin as an inhibitor of HIV-1 protease” (J Nat Prod, 1993).

A value given as a limit tells only on which side of the number the result lay.

Sequence of Protease (Q9YQ12 whole entry): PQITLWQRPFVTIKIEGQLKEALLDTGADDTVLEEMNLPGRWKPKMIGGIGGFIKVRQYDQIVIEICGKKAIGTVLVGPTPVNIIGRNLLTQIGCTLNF

`C=C1[C@@H](C)[C@H]2[C@H](Cc3ccccc3)NC(=O)[C@]23[C@H](OC(C)=O)/C=C/[C@@H](C)C[C@@H](CO)C/C=C/[C@H]3[C@@H]1O`: the IC50 (usually the point on the concentration scale where inhibition reaches its midpoint) was 22 µM.

Regarding `C=C1[C@@H](C)[C@H]2[C@H](Cc3cccc(O)c3)NC(=O)[C@]23[C@H](OC(C)=O)/C=C/[C@@H](C)C[C@@H](CO)C/C=C/[C@H]3[C@@H]1O`, the half-maximal inhibitory concentration (IC50) stood at 38 µM.

For `C=C1[C@@H](C)[C@H]2[C@H](Cc3ccccc3)NC(=O)[C@]23[C@H](OC(C)=O)/C=C/[C@@H](C)C[C@@](O)(CO)C/C=C/[C@H]3[C@@H]1O`, inhibition was half-maximal at 45 µM (IC50).

`C=C1[C@@H](C)[C@H]2[C@H](Cc3cccc(O)c3)NC(=O)[C@]23[C@H](OC(C)=O)/C=C/[C@@H](C)C[C@@](O)(CO)C/C=C/[C@H]3[C@@H]1O` yielded a concentration for half-maximal inhibition (IC50) above 50 µM.

For `C=C1[C@@H](C)[C@H]2[C@H](Cc3ccc(O)c(O)c3)NC(=O)[C@]23[C@H](OC(C)=O)/C=C/[C@@H](C)C[C@@H](CO)C/C=C/[C@H]3[C@@H]1O`, the IC50 was above 50 µM.

In turn, `C=C1[C@@H](C)[C@H]2[C@H](Cc3ccc(O)cc3)NC(=O)[C@]23[C@H](OC(C)=O)/C=C/[C@@H](C)C[C@@H](CO)C/C=C/[C@H]3[C@@H]1O` registered an IC50 of 35 µM.

Compound `C=C1[C@@H](C)[C@H]2[C@H](Cc3ccccc3)NC(=O)[C@]23[C@H](OC(C)=O)/C=C/[C@@H](C)C[C@@H](C)C/C=C/[C@H]3[C@@H]1O` yielded an IC50 of 3 µM.
